Test results: patent US8877707B2, “Inhibitors of HCV NS5A” (Presidio Pharmaceuticals, Inc., priority 2010, dated 2014)

The compounds below were run on HCV genotype 1b replicon in Huh 7 cells (assay: HCV replicon assay (1b_Huh-Luc/Neo-ET cell line, luciferase readout)). Settings: Hepatitis C virus, Huh-7, 72 h, read-out: Inhibition of HCV genotype 1b.
Type: cell-based
Outline: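 Huh 7 cells carrying a bicistronic genotype 1b luciferase replicon were treated with compound in triplicate the day after plating and incubated 72 h. Luciferase activity expressed as % of untreated control; EC50 from a four-parameter logistic fit, repeated several times.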

Row | SMILES | EC50
1 | CNC(=O)N[C@@H](C(=O)N1CCC[C@H]1c1nc(-c2ccc3cc(-c4ccc(-c5cnc([C@@H]6CCCN6C(=O)[C@@H](NC(=O)OC)C(C)C)[nH]5)cc4)ccc3c2)c[nH]1)c1ccccc1 [14s] | < 1 nM

Same assay, conditions: Hepatitis C virus, Huh-7; HCV 1b replicon; read-out: Inhibition of HCV genotype 1b

Row | SMILES | EC50
2 | COC(=O)N[C@H](C(=O)N1CCC[C@H]1c1ncc(-c2ccc3nc(-c4ccc(-c5cnc([C@@H]6CCCN6C(=O)[C@H](NC(=O)OC)c6ccccc6)[nH]5)c(F)c4)ccc3c2)[nH]1)C1CCCC1 [compound 468] | < 1 nM
3 | COC(=O)N[C@H](C(=O)N1CCC[C@H]1c1nc2ccc(-c3ccc4cc(-c5ccc6nc([C@@H]7CCCN7C(=O)[C@@H](NC(=O)OC)[C@@H](C)OC)[nH]c6c5)nnc4c3)cc2[nH]1)[C@@H](C)OC [compound 538] | < 1 nM
4 | COC(=O)N[C@H](C(=O)N1CCC[C@H]1CNC(=O)c1ccc(-c2ccc3cc(-c4cnc([C@@H]5CCCN5C(=O)[C@@H](NC(=O)OC)C(C)C)[nH]4)ccc3c2)cc1)C(C)C [compound 565] | < 1 nM
5 | COC(=O)N[C@H](C(=O)N1CCC[C@H]1c1ncc(-c2ccc3cc(-c4ccc5nc([C@@H]6CCCN6C(=O)[C@@H](NC(=O)OC)[C@@H](C)OC)[nH]c5n4)ccc3c2)[nH]1)[C@@H](C)OC [compound 530] | < 1 nM
6 | COC(=O)N[C@H](C(=O)N1CCC[C@H]1c1ncc(-c2ccc3cc(-c4ccc(-c5cnc([C@@H]6CCCN6C(=O)[C@H](NC(=O)OC)c6ccccc6)[nH]5)cn4)ccc3c2)[nH]1)[C@@H](C)OC [compound 480] | < 1 nM
7 | COC(=O)N[C@H](C(=O)N1CCC[C@H]1c1ncc(-c2ccc3nc(-c4ccc(-c5cnc([C@@H]6CCCN6C(=O)[C@@H](NC(=O)OC)C6CCOCC6)[nH]5)c(F)c4)ccc3c2)[nH]1)C(C)C [compound 454] | < 1 nM
8 | CCC(CC)[C@H](NC(=O)OC)C(=O)N1CCC[C@H]1c1ncc(-c2ccc3cc(-c4ccc5nc([C@@H]6CCCN6C(=O)[C@@H](NC(=O)OC)C(CC)CC)[nH]c5n4)ccc3c2)[nH]1 [compound 520] | < 1 nM

Same assay, conditions: Hepatitis C virus; Table 1; genotype 1b replicon, Huh 7 cells, 72 h, luciferase; read-out: Inhibition of HCV genotype 1b

Row | SMILES | EC50
9 | COC(=O)N[C@H](C(=O)N1CCC[C@H]1c1nc2ccc(-c3ccc4cc(-c5cnc([C@@H]6CCCN6C(=O)[C@@H](NC(=O)OC)C6CCOCC6)[nH]5)ccc4c3)cc2[nH]1)C(C)C [compound 190] | < 1 nM
10 | COC(=O)N[C@H](C(=O)N1CCC[C@H]1c1ncc(-c2ccc(-c3ccc4cc(-c5cnc([C@@H]6CCCN6C(=O)[C@@H](NC(=O)OC)C6CC6)[nH]5)ccc4c3)cc2)[nH]1)C1CC1 [compound 143] | < 1 nM
11 | COC(=O)N[C@H](C(=O)N1CCC[C@H]1c1ncc(-c2ccc3cc(-c4ccc5nc([C@@H]6CCCN6C(=O)[C@@H](c6ccccc6)N6CCCC6)[nH]c5c4)ccc3c2)[nH]1)C(C)C [compound 180] | < 1 nM
12 | COC(=O)N[C@H](C(=O)N1CCC[C@H]1c1nc2ccc3cc(-c4ccc5cc(-c6cnc([C@@H]7CCCN7C(=O)[C@@H](NC(=O)OC)C7CCOCC7)[nH]6)ccc5n4)ccc3c2[nH]1)C(C)C [compound 297] | < 1 nM
13 | COC(=O)N[C@H](C(=O)N1CCC[C@H]1c1nc(-c2cnc3cc(-c4ccc(-c5cnc([C@@H]6CCCN6C(=O)[C@@H](NC(=O)OC)C(C)C)[nH]5)cc4F)ccc3c2)c[nH]1)C(C)C [compound 57] | < 1 nM
14 | COC(=O)N[C@H](C(=O)N1CCC[C@H]1c1ncc(-c2ccc3cc(-c4ccc(-c5cnc([C@@H]6CCCN6C(=O)[C@H](NC(=O)OC)c6ccccc6)[nH]5)cc4F)ncc3c2)[nH]1)C(C)C [compound 152] | < 1 nM
15 | COC(=O)N[C@H](C(=O)N1CCC[C@H]1c1nc2ccc3cc(-c4ccc5cc(-c6cnc([C@@H]7CCCN7C(=O)[C@H](NC(=O)OC7CCOCC7)c7ccccc7)[nH]6)ccc5n4)ccc3c2[nH]1)C(C)C [compound 299] | < 1 nM
16 | COC(=O)N[C@H](C(=O)N1CCC[C@H]1c1ncc(-c2ccc(-c3nc4ccc(-c5cnc([C@@H]6CCCN6C(=O)[C@H](NC(=O)OC(C)(C)C)c6ccccc6)[nH]5)cc4o3)cc2)[nH]1)C(C)C [compound 247] | < 1 nM
17 | COC(=O)N[C@H](C(=O)N1CCC[C@H]1c1nc2ccc(-c3ccc4cc(-c5cnc([C@@H]6CCCN6C(=O)[C@H](NC(=O)OC)c6ccccc6)[nH]5)ccc4c3)cc2[nH]1)C1CCOCC1 [compound 212] | < 1 nM
18 | COC(=O)N[C@H](C(=O)N1CCC[C@H]1c1ncc(-c2ccc(-c3ccc4cc(-c5c[nH]c([C@@H]6CCCN6C(=O)[C@H](NC(=O)OC)c6ccccc6)n5)ccc4c3)c(F)c2)[nH]1)C(C)C [compound 67] | < 1 nM
19 | COC(=O)N[C@@H](C)C(=O)N1CCC[C@H]1c1ncc(-c2ccc(-c3ccc4cc(-c5c[nH]c([C@@H]6CCCN6C(=O)[C@@H](NC(=O)OC)C(C)C)n5)ccc4n3)cc2)[nH]1 [compound 44] | < 1 nM
20 | COC(=O)N[C@H](C(=O)N1CCC[C@H]1c1nc2ccc(-c3ccc4cc(-c5cnc([C@@H]6CCCN6C(=O)[C@H](NC(=O)N6CC[C@H](O)C6)c6ccccc6)[nH]5)ccc4c3)cc2[nH]1)C(C)C [compound 183] | < 1 nM
21 | COC(=O)N[C@H](C(=O)N1CCC[C@H]1c1nc(-c2ccc3cc(-c4ccc(-c5cnc([C@@H]6CCCN6C(=O)[C@@H](NC(=O)OC)[C@@H](C)OC)[nH]5)cc4)ccc3c2)c[nH]1)[C@@H](C)OC [compound 3] | < 1 nM
22 | COC(=O)N[C@H](C(=O)N1CCC[C@H]1c1ncc(-c2ccc(-c3ccc4cc(-c5c[nH]c([C@@H]6CCCN6C(=O)[C@H](NC(=O)OC)c6ccccc6)n5)ccc4c3)nc2)[nH]1)C(C)C [compound 48] | < 1 nM
23 | COC(=O)N[C@H](C(=O)N1CCC[C@H]1c1nc(-c2ccc3c(=O)n(-c4ccc(-c5cnc([C@@H]6CCCN6C(=O)[C@@H](NC(=O)OC)C(C)C)[nH]5)cc4)ccc3c2)c[nH]1)C(C)C [compound 287] | < 1 nM
24 | COC(=O)N[C@H](C(=O)N1CCC[C@H]1c1ncc(-c2ccc(-c3ccc4cc(-c5c[nH]c([C@@H]6CCCN6C(=O)[C@@H](NC(=O)OC)C6CCOCC6)n5)cnc4c3)c(F)c2)[nH]1)C(C)C [compound 59] | < 1 nM
25 | COC(=O)N[C@H](C(=O)N1CCC[C@H]1c1nc(-c2ccc3nc(-c4ccc(-c5cnc([C@@H]6CCCN6C(=O)[C@@H](NC(=O)OC)C6CCOCC6)[nH]5)c(F)c4)ccc3c2)c[nH]1)C1CCOCC1 [compound 108] | < 1 nM
26 | COC(=O)N[C@H](C(=O)N1CCC[C@H]1c1nc(-c2ccc3nc(-c4ccc(-c5cnc([C@@H]6CCCN6C(=O)[C@@H](NC(=O)OC)C(C)C)[nH]5)cc4F)ccc3c2)c[nH]1)C(C)C [compound 96] | < 1 nM
27 | COC(=O)N[C@H](C(=O)N1CCC[C@H]1c1ncc(-c2ccc(-c3ccc4cc(-c5c[nH]c([C@@H]6CCCN6C(=O)[C@@H](c6ccccc6)N6CCCC6)n5)ccc4c3)cc2)[nH]1)C(C)C [compound 9] | < 1 nM
28 | COC(=O)N[C@H](C(=O)N1CCOC[C@H]1c1ncc(-c2ccc(-c3ccc4cc(-c5cnc([C@@H]6CCCN6C(=O)[C@H](NC(=O)OC)c6ccccc6)[nH]5)ccc4c3)cc2)[nH]1)C(C)C [compound 137] | < 1 nM
29 | COC(=O)N[C@@H](C)C(=O)N1CCC[C@H]1c1nc(-c2ccc3nc(N4CCC(c5cnc([C@@H]6CCCN6C(=O)[C@H](C)NC(=O)OC)[nH]5)CC4)ccc3c2)c[nH]1 [compound 273] | 1 to 9.9 nM
30 | COC(=O)N[C@H](C(=O)N1CCC[C@H]1c1ncc(-c2ccc(-c3nc4ccc(-c5cnc([C@@H]6CCCN6C(=O)[C@@H](NC(=O)OC)C(C)C)[nH]5)cc4s3)cc2)[nH]1)C(C)C [compound 229] | < 1 nM
31 | CNC(=O)N[C@@H](C(=O)N1CCC[C@H]1c1nc(-c2ccc3nc(-c4ccc(-c5cnc([C@@H]6CCCN6C(=O)[C@@H](NC(=O)OC)C(C)C)[nH]5)cc4)ccc3c2)c[nH]1)c1ccccc1 [compound 36] | < 1 nM
32 | COC(=O)N[C@H](C(=O)N1CCC[C@H]1c1ncc(-c2ccc(-c3ccc4nc(-c5cnc([C@@H]6CCCN6C(=O)[C@@H](NC(=O)OC)C(C)C)[nH]5)sc4c3)cc2)[nH]1)C(C)C [compound 258] | < 1 nM
33 | COC(=O)N[C@H](C(=O)N1CCC[C@H]1c1ncc(-c2ccc3cc(-c4ccc5nc([C@@H]6CCCN6C(=O)[C@@H](NC(=O)OC)C(C)C)[nH]c5c4)ccc3n2)[nH]1)C(C)C [compound 209] | < 1 nM
34 | COC(=O)N[C@H](C(=O)N1CCC[C@H]1c1ncc(-c2ccc(-c3ccc4cc(-c5c[nH]c([C@@H]6CCCN6C(=O)[C@H](NC(=O)OC6CCOCC6)c6ccccc6)n5)cnc4c3)nc2)[nH]1)C(C)C [compound 81] | < 1 nM

Same assay, conditions: Hepatitis C virus; Table 2; genotype 1b replicon, Huh 7 cells, 72 h, luciferase; read-out: Inhibition of HCV genotype 1b

Row | SMILES | EC50
35 | COC(=O)N[C@H](C(=O)N1CCC[C@H]1c1ncc(-c2ccc(-c3ccc4cc(-c5cnc([C@@H]6CCCN6C(=O)[C@@H](NC(=O)OC)C(C)C)[nH]5)ccc4c3)c(C(F)(F)F)c2)[nH]1)C(C)C [compound 310] | < 1 nM
36 | COC(=O)N[C@@H](C)C(=O)N1CCC[C@H]1c1ncc(-c2ccc3cc(-c4ccc(-c5cnc([C@@H]6COCCN6C(=O)[C@H](NC(=O)OC)c6ccccc6)[nH]5)cc4)ccc3c2)[nH]1 [compound 322] | < 1 nM
37 | COC[C@H](NC(=O)OC)C(=O)N1CCC[C@H]1c1ncc(-c2ccc3cc(-c4ccc(-c5cnc([C@@H]6CCCN6C(=O)[C@H](NC(=O)OC)c6ccccc6)[nH]5)cc4)ccc3c2)[nH]1 [compound 316] | < 1 nM
38 | CC[C@H](C)[C@H](NC(=O)OC)C(=O)N1CCC[C@H]1c1ncc(-c2ccc3cc(-c4cnc5nc([C@@H]6CCCN6C(=O)[C@@H](NC(=O)OC)[C@@H](C)CC)[nH]c5c4)ccc3c2)[nH]1 [compound 404] | < 1 nM
39 | COC(=O)N[C@H](C(=O)N1CCC[C@H]1c1ncc(-c2ccc(-c3ccc4cc(-c5cnc([C@@H]6C[C@@H](O)CN6C(=O)[C@@H](NC(=O)OC)C(C)C)[nH]5)ccc4c3)cc2)[nH]1)C(C)C [compound 305] | < 1 nM
40 | COC(=O)N[C@H](C(=O)N1CCC[C@H]1c1ncc(-c2ccc3cc(-c4cnc5nc([C@@H]6CCCN6C(=O)[C@@H](NC(=O)OC)C6CCCC6)[nH]c5c4)ccc3c2)[nH]1)C1CCCC1 [compound 403] | < 1 nM
